In patent publication US4156724A, “N-acylamino-alpha-arylacetamido cephalosporins and antibacterial compositions and methods containing them” (Sumitomo Chemical Company, Limited, priority 1974, dated 1979):
≈ marks a conversion by molar mass, not a printed value. Where two headings read alike, the source gives them in different places.

Experiments:
Assay type in all cases: cell-based
Serratia No. 72 = experiment: Minimum Inhibitory Concentration, Serratia No. 72
Experimental: (§1) anti-microbial activity tests were carried out on the compounds obtained in the Examples.

[1] = test system: Staphylococcus aureus FS 289; experiment: Minimum Inhibitory Concentration, Staphylococcus aureus FS 289
Experimental: as §1
*Staphylococcus aureus FS 289: strain resistant to penicillin

Escherichia coli NIHJ = experiment: Minimum Inhibitory Concentration, Escherichia coli NIHJ; conditions: for MIC: read-out: Minimum Inhibitory Concentration
Experimental: as §1

[2] = test system: Klebsiella pneumoniae 602; experiment: Minimum Inhibitory Concentration, Klebsiella pneumoniae 602
Experimental: as §1

[3] = test system: Pseudomonas aeruginosa 104; experiment: Minimum Inhibitory Concentration, Pseudomonas aeruginosa 104
Experimental: as §1

Proteus vulgaris HX 19 = experiment: Minimum Inhibitory Concentration, Proteus vulgaris HX 19
Experimental: as §1

[4] = test system: Enterobacter aerogeneus No. 75; experiment: Minimum Inhibitory Concentration, Enterobacter aerogeneus No. 75
Experimental: as §1

[5] = test system: Staphylococcus aureus 209 P; experiment: Minimum Inhibitory Concentration, Staphylococcus aureus 209 P; conditions: for MIC: read-out: Minimum Inhibitory Concentration
Experimental: as §1

[6] = FS289, Staphylococcus aureus FS 289, strain resistant to penicillin, read-out: Minimum Inhibitory Concentration
[7] = Klebsiella pneumoniae, 602, Klebsiella pneumoniae 602, read-out: Minimum Inhibitory Concentration
[8] = Pseudomonas aeruginosa 104, read-out: Minimum Inhibitory Concentration
[9] = HX19, Proteus vulgaris HX 19, read-out: Minimum Inhibitory Concentration
[10] = Enterobacter aerogeneus No. 75, read-out: Minimum Inhibitory Concentration
[11] = Staphylococcus aureus, FS289, read-out: Minimum Inhibitory Concentration

| SMILES | MIC (Serratia No. 72) | MIC [1, 6] | MIC (Escherichia coli NIHJ; Escherichia coli NIHJ) | MIC [2, 7] | MIC [3, 8] | MIC (Proteus vulgaris HX 19; [9]) | MIC [4, 10] | MIC ([5]; Staphylococcus aureus 209 P) | also measured |
| --- | --- | --- | --- | --- | --- | --- | --- | --- | --- |
| CC(=O)OCC1=C(C(=O)O)N2C(=O)C(NC(=O)C(NC(=O)c3cnccc3O)c3ccc(CO)cc3)C2SC1 (racemic) [Example 88, 7-[DL-α-(4-Hydroxypyridine-3-carbonamido)-α-p-hydroxymethylphenylacetamido]cephalosporanic Acid] | > 200 µg/mL | 6.25 µg/mL (≈ 11.2 µM) | 25 µg/mL (≈ 44.9 µM) | 25 µg/mL (≈ 44.9 µM) | 12.5 µg/mL (≈ 22.5 µM) | 0.39 µg/mL (≈ 0.701 µM) | 25 µg/mL (≈ 44.9 µM) | 0.78 µg/mL (≈ 1.4 µM) | – |
| CC(=O)OCC1=C(C(=O)O)N2C(=O)C(NC(=O)C(NC(=O)c3cnc4cccnc4c3O)c3ccc(CO)cc3)C2SC1 (racemic) [Example 89, 7-[DL-α-(4-Hydroxy-1,5-naphthyridine-3-carbonamido)-α-p-hydroxymethylphenylacetamido]cephalosporanic Acid] | 50 µg/mL (≈ 82.3 µM) | 6.25 µg/mL (≈ 10.3 µM) | 3.13 µg/mL (≈ 5.15 µM) | 1.56 µg/mL (≈ 2.57 µM) | 6.25 µg/mL (≈ 10.3 µM) | 0.78 µg/mL (≈ 1.28 µM) | 6.25 µg/mL (≈ 10.3 µM) | 1.56 µg/mL (≈ 2.57 µM) | – |
| Cc1nnc(SCC2=C(C(=O)O)N3C(=O)C(NC(=O)C(NC(=O)c4cnccc4O)c4ccc(CO)cc4)C3SC2)s1 (racemic) [Example 90, 7-[DL-α-(4-Hydroxypyridine-3carbonamido)-α -p-hydroxymethylphenylacetamido]-3-(2-methyl-1,3,4-thiadiazol-5-yl)thiomethyl-3-cephem-4-carboxylic Acid] | > 200 µg/mL | 6.25 µg/mL (≈ 9.94 µM) | 12.5 µg/mL (≈ 19.9 µM) | 25 µg/mL (≈ 39.8 µM) | 12.5 µg/mL (≈ 19.9 µM) | 0.39 µg/mL (≈ 0.62 µM) | 12.5 µg/mL (≈ 19.9 µM) | 0.78 µg/mL (≈ 1.24 µM) | – |
| CC(=O)OCC1=C(C(=O)O)N2C(=O)[C@@H](NC(=O)[C@H](N)c3ccccc3)[C@H]2SC1 [CEG, reference compound] | > 200 µg/mL | 12.5 µg/mL (≈ 30.8 µM) | 12.5 µg/mL (≈ 30.8 µM) | 3.13 µg/mL (≈ 7.72 µM) | > 200 µg/mL | 12.5 µg/mL (≈ 30.8 µM) | 50 µg/mL (≈ 123 µM) | 1.56 µg/mL (≈ 3.85 µM) | – |
| CC(=O)OCC1=C(C(=O)O)N2C(=O)[C@@H](NC(=O)Cc3cccs3)[C@H]2SC1 [CET, reference compound] | > 200 µg/mL | – | – | – | – | – | – | – | MIC [1, 11]: 0.78 µg/mL (≈ 1.97 µM); MIC (Escherichia coli NIHJ; Escherichia coli): 12.5 µg/mL (≈ 31.5 µM); MIC ([2]; Klebsiella pneumoniae, 602, read-out: Minimum Inhibitory Concentration): 0.78 µg/mL (≈ 1.97 µM); MIC ([3]; Pseudomonas aeruginosa, 104, read-out: Minimum Inhibitory Concentration): > 200 µg/mL; MIC (Proteus vulgaris HX 19; Proteus vulgaris, HX19, read-out: Minimum Inhibitory Concentration): 3.13 µg/mL (≈ 7.9 µM); MIC ([4]; Enterobacter, NO.75, read-out: Minimum Inhibitory Concentration): > 200 µg/mL; MIC ([5]; Staphylococcus aureus, 209P): 0.1 µg/mL (≈ 0.252 µM) |
| Cc1nnc(SCC2=C(C(=O)O)N3C(=O)[C@@H](NC(=O)Cn4cnnn4)[C@H]3SC2)s1 [CEZ, reference compound] | > 200 µg/mL | – | – | 0.78 µg/mL (≈ 1.72 µM) | > 200 µg/mL | 6.25 µg/mL (≈ 13.8 µM) | 100 µg/mL (≈ 220 µM) | 0.2 µg/mL (≈ 0.44 µM) | MIC [1, 11]: 1.56 µg/mL (≈ 3.43 µM); MIC (Escherichia coli NIHJ; Escherichia coli): 1.56 µg/mL (≈ 3.43 µM) |
| CC(=O)OCC1=C(C(=O)O)N2C(=O)[C@@H](NC(=O)[C@H](NC(=O)c3cnccc3O)c3ccc(NC(N)=O)cc3)[C@H]2SC1 [Example 1, 7-[D-α-(4-Hydroxypyridine-3-carboxyamido)-α-p-ureidophenylacetamido]cephalosporanic Acid] | > 200 µg/mL | 3.13 µg/mL (≈ 5.35 µM) | 12.5 µg/mL (≈ 21.4 µM) | 12.5 µg/mL (≈ 21.4 µM) | 6.25 µg/mL (≈ 10.7 µM) | 0.2 µg/mL (≈ 0.342 µM) | 25 µg/mL (≈ 42.8 µM) | 0.39 µg/mL (≈ 0.667 µM) | – |
| CC(=O)OCC1=C(C(=O)O)N2C(=O)[C@@H](NC(=O)[C@H](NC(=O)c3cnccc3O)c3cccc(NC(N)=O)c3)[C@H]2SC1 [Example 2] | > 200 µg/mL | 6.25 µg/mL (≈ 10.7 µM) | 12.5 µg/mL (≈ 21.4 µM) | 12.5 µg/mL (≈ 21.4 µM) | 6.25 µg/mL (≈ 10.7 µM) | 0.39 µg/mL (≈ 0.667 µM) | 25 µg/mL (≈ 42.8 µM) | 0.39 µg/mL (≈ 0.667 µM) | – |
| CC(=O)OCC1=C(C(=O)O)N2C(=O)[C@@H](NC(=O)[C@H](NC(=O)c3cccnc3O)c3ccc(NC(N)=O)cc3)[C@H]2SC1 [Example 3] | > 200 µg/mL | 6.25 µg/mL (≈ 10.7 µM) | 25 µg/mL (≈ 42.8 µM) | 25 µg/mL (≈ 42.8 µM) | 12.5 µg/mL (≈ 21.4 µM) | 0.39 µg/mL (≈ 0.667 µM) | 25 µg/mL (≈ 42.8 µM) | 0.39 µg/mL (≈ 0.667 µM) | – |
| CC(=O)OCC1=C(C(=O)[O-])N2C(=O)C(NC(=O)C(NC(=O)c3ccnnc3O)c3ccc(NC(N)=O)cc3)C2SC1.[Na+] (stereo not shown) [Example 4] | – | – | – | – | – | – | – | – | Minimum Inhibitory Concentration (Serratia No. 72): 100 µg/mL; Minimum Inhibitory Concentration ([1]; Staphylococcus aureus FS 289, strain resistant to penicillin): 6.25 µg/mL; Minimum Inhibitory Concentration (Escherichia coli NIHJ; Escherichia coli NIHJ): 6.25 µg/mL; Minimum Inhibitory Concentration ([2]; Klebsiella pneumoniae 602): 6.25 µg/mL; Minimum Inhibitory Concentration ([3]; Pseudomonas aeruginosa 104): 25 µg/mL; Minimum Inhibitory Concentration (Proteus vulgaris HX 19; Proteus vulgaris HX 19): 0.2 µg/mL; Minimum Inhibitory Concentration ([4]; Enterobacter aerogeneus No. 75): 50 µg/mL; Minimum Inhibitory Concentration ([5]; Staphylococcus aureus 209 P): 0.39 µg/mL |
| CC(=O)OCC1=C(C(=O)O)N2C(=O)[C@@H](NC(=O)[C@H](NC(=O)c3cncnc3O)c3ccc(NC(N)=O)cc3)[C@H]2SC1 [Example 5] | 200 µg/mL (≈ 342 µM) | 6.25 µg/mL (≈ 10.7 µM) | 12.5 µg/mL (≈ 21.3 µM) | 12.5 µg/mL (≈ 21.3 µM) | 12.5 µg/mL (≈ 21.3 µM) | 0.39 µg/mL (≈ 0.666 µM) | 50 µg/mL (≈ 85.4 µM) | 0.39 µg/mL (≈ 0.666 µM) | – |
| CC(=O)OCC1=C(C(=O)O)N2C(=O)[C@@H](NC(=O)[C@H](NC(=O)c3cnc(O)nc3O)c3ccc(NC(N)=O)cc3)[C@H]2SC1 [Example 6] | 200 µg/mL (≈ 332 µM) | 6.25 µg/mL (≈ 10.4 µM) | 12.5 µg/mL (≈ 20.8 µM) | 12.5 µg/mL (≈ 20.8 µM) | 12.5 µg/mL (≈ 20.8 µM) | 0.2 µg/mL (≈ 0.332 µM) | 25 µg/mL (≈ 41.6 µM) | 0.39 µg/mL (≈ 0.648 µM) | – |
| CC(=O)OCC1=C(C(=O)O)N2C(=O)[C@@H](NC(=O)[C@H](NC(=O)c3cnc4cccnc4c3O)c3ccc(NC(N)=O)cc3)[C@H]2SC1 [Example 7] | 50 µg/mL (≈ 78.7 µM) | 6.25 µg/mL (≈ 9.83 µM) | 3.13 µg/mL (≈ 4.92 µM) | 3.13 µg/mL (≈ 4.92 µM) | 6.25 µg/mL (≈ 9.83 µM) | 0.78 µg/mL (≈ 1.23 µM) | 6.25 µg/mL (≈ 9.83 µM) | 0.78 µg/mL (≈ 1.23 µM) | – |
| CC(=O)OCC1=C(C(=O)O)N2C(=O)[C@@H](NC(=O)[C@H](NC(=O)c3cnc4nc(C)ccc4c3O)c3ccc(NC(N)=O)cc3)[C@H]2SC1 [Example 8] | 50 µg/mL (≈ 77 µM) | 6.25 µg/mL (≈ 9.62 µM) | 6.25 µg/mL (≈ 9.62 µM) | 12.5 µg/mL (≈ 19.2 µM) | 6.25 µg/mL (≈ 9.62 µM) | 0.39 µg/mL (≈ 0.6 µM) | 12.5 µg/mL (≈ 19.2 µM) | 0.78 µg/mL (≈ 1.2 µM) | – |
| CC(=O)OCC1=C(C(=O)O)N2C(=O)[C@@H](NC(=O)[C@H](NC(=O)c3nnc4ccccc4c3O)c3ccc(NC(N)=O)cc3)[C@H]2SC1 [Example 9] | 50 µg/mL (≈ 78.7 µM) | 6.25 µg/mL (≈ 9.83 µM) | 12.5 µg/mL (≈ 19.7 µM) | 12.5 µg/mL (≈ 19.7 µM) | 12.5 µg/mL (≈ 19.7 µM) | 0.39 µg/mL (≈ 0.614 µM) | 12.5 µg/mL (≈ 19.7 µM) | 0.78 µg/mL (≈ 1.23 µM) | – |
| Cc1nnc(SCC2=C(C(=O)O)N3C(=O)[C@@H](NC(=O)[C@H](NC(=O)c4cnccc4O)c4ccc(NC(N)=O)cc4)[C@H]3SC2)s1 [Example 12, 7-[D-α-(4-Hydroxypyridine-3-carboxyamido)-α-(p-ureidophenyl)acetamido]-3-(2-methyl-1,3,4-thiadiazol-5-yl)thiomethyl-3-cephem-4-carboxylic Acid] | 50 µg/mL (≈ 76.1 µM) | 6.25 µg/mL (≈ 9.52 µM) | 6.25 µg/mL (≈ 9.52 µM) | 6.25 µg/mL (≈ 9.52 µM) | 6.25 µg/mL (≈ 9.52 µM) | 0.1 µg/mL (≈ 0.152 µM) | 12.5 µg/mL (≈ 19 µM) | 0.39 µg/mL (≈ 0.594 µM) | – |
| Cn1nnnc1SCC1=C(C(=O)O)N2C(=O)[C@@H](NC(=O)[C@H](NC(=O)c3cnccc3O)c3ccc(NC(N)=O)cc3)[C@H]2SC1 [Example 13, 7-[D-α-(4-Hydroxypyridine-3-carboxyamido)-α-(p-ureidophenyl)acetamido]-3-(1-methyltetrazol-5-yl)-thiomethyl-3-cephem-4-carboxylic Acid] | 50 µg/mL (≈ 78 µM) | 6.25 µg/mL (≈ 9.76 µM) | 6.25 µg/mL (≈ 9.76 µM) | 3.13 µg/mL (≈ 4.89 µM) | 6.25 µg/mL (≈ 9.76 µM) | 0.2 µg/mL (≈ 0.312 µM) | 12.5 µg/mL (≈ 19.5 µM) | 0.39 µg/mL (≈ 0.609 µM) | – |
